We go through 1 sequence from patent US20140127269A1, “Anti-Inflammatory Peptide Derived From Thrombospondin-1 and Uses Thereof” (THE SCHEPENS EYE RESEARCH INSTITUTE, INC., priority 2012, published 2014).

Experiment [1] concerns CD4+CD25− T cells. Description: Treg induction from anti-CD3-activated CD4+CD25- T cells in vitro (flow cytometry, TGFbeta ELISA). In kind it is cell-based. How it is done:
Purified CD4+CD25− T cells were stimulated with plate-bound anti-CD3 antibody for 48 hr at 37 degrees C. in the presence of 10 microM TSP-peptide or control peptide. Activated T cells were washed and subjected to 2 cycles of amplification, 48 hr each, in the presence of T cell growth factor IL-2 (50 U/ml). Proliferated T cells were then stained using fluorochrome-conjugated antibodies to label surface CD4 and CD25 and intracellular Foxp3. Stained cells were analyzed using a flow cytometer. Culture supernatants collected from cells after initial 48 hr culture were tested for the content of TGFbeta using an ELISA.

The subject of experiment [2] is CD4+ T cells derived from the spleen and lymph node. Description: Treg and inflammatory effector cells in ova/CFA-immunized mice (flow cytometry). In kind it is in vivo. As to conditions: 10 μg on day 1, 3 and 5 post-immunization, analysed day 7; compared to control peptide. How it is done: To determine if such an expansion of Treg cells by TSP-peptide is possible in vivo, and whether it can reduce the typical IL-17 or IFNγ-producing inflammatory effectors, mice were immunized with an ovalbumin (ova) antigen in Complete Freund's Adjuvant (CFA). This is a commonly used experimental approach to generate antigen-specific inflammatory effectors. These ova-immunized mice were treated with either control or TSP-peptide (10 μg; SEQ ID NO:1) on day 1, 3 and 5 post-immunization. On day 7 post-immunization, the CD4+ T cells derived from the spleen and lymph node of these mice were analyzed by flow cytometry to determine the numbers of Foxp3+ Treg cells and the expression patterns of the inflammatory cytokines, IL-17 and […].
Lymph nodes were harvested from immunized mice treated with either control or TSP-peptide 7 days post-immunization. Lymph node cells were cultured in the presence of PMA (10 ng/ml), ionomycin (200 ng/ml) and Brefeldin A for 20 hr at 37 degrees C. Cell surface CD4 and CD25 and intracellular Foxp3, IFNgamma and IL-17 were detected using fluorochrome-conjugated antibodies followed by flow cytometric analysis.

For experiment [3], the system named is experimental mouse model of autoimmune uveitis (IRBP-immunized mice). In words: Experimental autoimmune uveitis, i.p. peptide treatment, clinical disease score. Type of experiment: in vivo, C57BL/6 mice. To be noted: i.p. 10 microgram on day 1, 3 and 5 post-immunization; scored for 26 days; compared to control peptide. How it is done: (§1) The expansion of Treg cells and the reduction of inflammatory effector cells was evaluated in an experimental mouse model of autoimmune uveitis to determine if the TSP-1 peptide reduced disease severity. […] The inflammatory response in the retina is monitored and scored regularly on the basis of severity by examining the fundus.
C57BL/6 mice were immunized subcutaneously, on day 0, with 200 microgram IRBP in complete Freund's adjuvant per mouse followed by i.p. injection of Pertussis toxin (0.1 microgram). On day 1, 3 and 5 post-immunization mice received i.p. injection of 10 microgram of either control or TSP-peptide. Clinical disease score was recorded for the 26 days post-immunization.

Experiment [4] has the same test system. Description: Experimental autoimmune uveitis, topical peptide treatment, clinical disease score and lymph node Th17/Treg transcription factor message. Type of experiment: in vivo, C57BL/6 mice. As to conditions: for disease severity / ocular inflammation (clinical disease score): topical 10 microgram per mouse (5 microgram per eye) once per day, day 1 to 7, scored for 26 days, compared to control peptide. On the procedure:
as §1
For topical administration, 10 microgram per mouse (5 microgram per eye) was administered for the duration of 7 days. TSP peptide was administered topically once per day for 7 days post-immunization with IRBP-CFA. 1 microgram per microliter solution was used for the eye drops, i.e., 0.1% solution used as 5 microliter per eye resulting in total 10 microliter (10 microgram) per mouse. A liquid formulation was used in topical application as well as when peptide was administered intraperitoneally.
C57BL/6 mice were immunized subcutaneously, on day 0, with 200 microgram IRBP in complete Freund's adjuvant per mouse followed by i.p. injection of Pertussis toxin (0.1 microgram). From day 1 to day 7 pos-immunization total 10 microgram of control or TSP-peptide was administered topically (5 micrograms/5 microliters per eye). Clinical disease score was recorded for the 26 days post-immunization.

Where [5] appears, read: topical treatment, relative to control peptide.

In the case of “KRFYVVMWKK (listed as Homo sapiens) [4N1K, 4N1 flanked with 2 Lys residues]”, the “number of cells expressing Foxp3 and CD25” value in experiment [1] (10 microM peptide, 48 hr anti-CD3 activation, then 2 cycles IL-2, compared to control peptide (4NGG)) is listed as “significantly increased”. In experiment [1] (10 microM peptide, culture supernatant after initial 48 hr, ELISA), the “synthesis of immunosuppressive cytokine TGF-β1” value is recorded as “increased”. The “induction of Treg cells in vitro” value in experiment [1] (in vitro) is “effectively induces Treg cells”. Besides, in experiment [2], the “numbers of Foxp3-expressing Treg cells” value is given as “increased numbers”, the “numbers of IFN-γ-expressing CD4 effectors” value is reported as “reduced numbers” and the “numbers of IL-17-expressing CD4 effectors” value was “reduced numbers”. For the same sequence, in experiment [3], the “disease severity (clinical disease score)” value is recorded as “significantly reduced”. In addition, the “disease severity / ocular inflammation (clinical disease score)” value in experiment [4] was “significantly reduced”. Moreover, in experiment [4] (listed as TSP-1 peptide), the “disease severity / ocular inflammation (clinical disease score)” value was “reduction of ocular inflammation”. In experiment [4] (setting [5]), the “anti-inflammatory Treg cells in the lymph nodes (transcriptional factor message)” value is recorded as “enhancement” and the “pro-inflammatory Th17 cells in the lymph nodes (transcriptional factor message)” value is recorded as “decline”.
